Consider 5 compounds from publication PMC6270011, “Design and Synthesis of Arylthiophene-2-Carbaldehydes via Suzuki-Miyaura Reactions and Their Biological Evaluation” (Molecules, 2013).

In brackets after ≈: the same amount, converted by molar mass. Where two headings read alike, the source gives them in different places.

One data set relates to Bacillus subtilis. The data set can be described thus: Antibacterial activity (disc / inhibition zone) against Bacillus subtilis. The conditions noted are these: for zone of inhibition at 25 µg/mL / zone of inhibition at 50 µg/mL: read-out: Inhibition zone, B. subtilis.
The subject of a further data set is Salmonella typhi. The data set can be described thus: Antibacterial activity (disc / inhibition zone) against Salmonella typhi. To be noted: Salmonella enterica, read-out: Inhibition zone, S. typhi.
Data set [1] is described as follows: Nitric oxide (NO) scavenging assay. The format is biochemical. The text has this:
Nitric oxide (NO) is a free radical causing inflammatory disorders and cancer in the human body when sodium nitroprusside decomposes to produce nitric oxide. The antioxidant activity of various thiophene derivatives has been reported in the literature and it has also been observed that compounds with high antioxidant activity served as antitumor agents. The newly synthesized compounds reacted directly with nitric oxide and inhibited nitrite formation in an excellent way.
The reaction mixtures comprising sample solution (2 µL), phosphate buffer (17 µL) and sodium nitroprusside (20 µL) were incubated at 37 °C for 2 h in well plates. Then Griess reagent (20 µL, 0.3% sulphanilic acid in glacial acetic acid + 0.1% naphthylethylenediamine (NED): equal volumes of both solutions mixed just before use) was added to each well plate and the mixture kept at room temperature for 20 min to develop the color. The absorbance was measured at 528 nm by using an ELISA reader. The results were processed using Gen 5 software. All the reactions were performed in triplicate. Positive control (containing known antioxidant) and control (containing all samples) were run in parallel. Negative control was used to calibrate the instrument. The % age antioxidant activity was determined by using the following formula: % antioxidant activity = [(Absorbance of control − absorbance of sample)/(Absorbance of control)] × 100

The next data set relates to Staphylococcus aureus. The data set can be described thus: Antibacterial activity (disc / inhibition zone) against Staphylococcus aureus. To be noted: read-out: Inhibition zone, S. aureus.
The next data set relates to Escherichia coli. Briefly: Antibacterial activity (disc / inhibition zone) against Escherichia coli. The conditions noted are these: read-out: Inhibition zone, E.coli.
A further data set deals with Shigella dysenteriae. Briefly: Antibacterial activity (disc / inhibition zone) against Shigella dysenteriae. The conditions noted are these: read-out: Inhibition zone, S. dysenteriae.
The subject of data set [2] is human red blood cells (erythrocytes). In kind it is cell-based. The protocol:
Three mL of freshly obtained human blood was placed in heparinized tubes to avoid coagulation, gently mixed and poured into a sterile 15 mL Falcon tube and centrifuged for 5 min at 1,000 ×g. The supernatant was discarded and red blood cells were washed three times with chilled (4 °C) sterile isotonic phosphate buffer saline pH 7.4 (5 mL). Erythrocytes (10^8 cells/mL) were maintained for each assay by dilution with phosphate buffer saline. Erythrocytes were counted on a heamacytometer. Twenty µL of each compound was mixed with red blood cells suspension (180 μL) separately. The samples were incubated at 37 °C for 35 min. The samples were placed on ice for 5 min and then agitated at 1,000 ×g for 5 min. Supernatant (100 µL) were taken from each tube and diluted 10 times with chilled (4 °C) phosphate buffered saline. Triton X-100 (0.1% v/v) was taken as a positive control and PBS was negative control and then subjected to the same process. […] The percentage RBSs lyses for each sample was calculated.

The next data set relates to Pseudomonas aeruginosa. The data set can be described thus: Antibacterial activity (disc / inhibition zone) against Pseudomonas aeruginosa. To be noted: for zone of inhibition at 25 µg/mL / zone of inhibition at 50 µg/mL: read-out: Inhibition zone, P. aeruginosa.
[3] abbreviates: 25 µg/mL, read-out: % Activity at 25 µg (NO scavenging).
The mark [4] stands for this setting: 50 µg/mL, read-out: % Activity at 50 µg (NO scavenging).
[5] abbreviates: 100 µg/mL, read-out: % Activity at 100 µg (NO scavenging).
[6] abbreviates: human erythrocytes, 37 °C, 35 min.

Take `O=Cc1cc(-c2ccc(Cl)s2)cs1` [2c]: the melting point was in the range of 229 to 231 °C. Moreover, in the data set with Bacillus subtilis (read-out: IC50 against Bacillus subtilis), the IC50 came out at 39.4 µg/mL (≈ 172 µM). Further, in the data set on Bacillus subtilis, the zone of inhibition at 25 µg/mL stood at 36.2 ± 0.05 mm and the zone of inhibition at 50 µg/mL was determined as 60 ± 0.01 mm. Moreover, in the data set with Salmonella typhi, the zone of inhibition at 25 µg/mL came out at 34 ± 0.05 mm and the zone of inhibition at 50 µg/mL was 64 ± 0.5 mm. Moreover, the “IC50 (NO scavenging)” value in data set [1] is 83.3 µg/mL (≈ 364 µM). Besides, in data set [1] (setting [3]), the inhibition amounted to 18 ± 0.007%. Moreover, the inhibition in data set [1] (setting [4]) stood at 40 ± 0.038%. The inhibition in [1] (setting [5]) is 55 ± 0.04%. Moreover, in the data set on Staphylococcus aureus, the zone of inhibition at 25 µg/mL was 34 ± 0.01 mm and the zone of inhibition at 50 µg/mL is 64 ± 0.11 mm. In the data set with Escherichia coli, the zone of inhibition at 25 µg/mL turned out to be 14 ± 0.14 mm and the zone of inhibition at 50 µg/mL was found to be 24 ± 0.17 mm. Besides, in the data set on Shigella dysenteriae, the zone of inhibition at 25 µg/mL came out at 35 ± 0.01 mm and the zone of inhibition at 50 µg/mL worked out at 64 ± 0.11 mm. For the same compound, the “Haemolytic activity, percentage of lysis (Average ± SD)” value in data set [2] (setting [6]) amounted to 3.934 ± 0.095%. In the data set on Pseudomonas aeruginosa, the zone of inhibition at 25 µg/mL is 45 ± 0.019 mm and the zone of inhibition at 50 µg/mL worked out at 60 ± 0.009 mm.

Compound `O=Cc1cc(-c2ccc(Cl)c(Cl)c2)cs1` [2h, 4-(3,4-Dichlorophenyl)thiophene-2-carbaldehyde] gave a melting point of 158 to 160 °C. Moreover, in the data set on Bacillus subtilis, the zone of inhibition at 25 µg/mL came to 28 ± 0.03 mm and the zone of inhibition at 50 µg/mL is 58 ± 0.22 mm. Besides, in the data set on Salmonella typhi, the zone of inhibition at 25 µg/mL amounted to 30 ± 0.13 mm and the zone of inhibition at 50 µg/mL was determined as 57 ± 0.01 mm. The inhibition in data set [1] (setting [3]) was 13 ± 0.002%. Further, in data set [1] (setting [4]), the inhibition stood at 20 ± 0.025%. Further, the inhibition in [1] (setting [5]) is 35 ± 0.077%. Further, in the data set with Staphylococcus aureus, the zone of inhibition at 25 µg/mL was 39.4 ± 0.05 mm and the zone of inhibition at 50 µg/mL turned out to be 59.4 ± 0.45 mm. In the data set with Escherichia coli, the zone of inhibition at 25 µg/mL was found to be 32 ± 0.03 mm and the zone of inhibition at 50 µg/mL came out at 60 ± 0.24 mm. For the same compound, in the data set on Shigella dysenteriae, the zone of inhibition at 25 µg/mL was determined as 29 ± 0.19 mm and the zone of inhibition at 50 µg/mL amounted to 59.4 ± 0.45 mm. Further, the “Haemolytic activity, percentage of lysis (Average ± SD)” value in [2] (setting [6]) is given as 3.487 ± 0.054%. Also, in the data set with Pseudomonas aeruginosa, the zone of inhibition at 25 µg/mL was found to be 40 ± 0.041 mm and the zone of inhibition at 50 µg/mL turned out to be 67 ± 0.021 mm.

Consider `O=C1O[C@H]([C@@H](O)CO)C(O)=C1O` [Ascorbic Acid, ascorbic acid, reference compound], for which the inhibition in data set [1] (setting [3]) turned out to be 40 ± 0.038%; in data set [1] (setting [4]), 61 ± 0.004%; in [1] (setting [5]) it was 77 ± 0.001%.

Consider “Triton X-100 [Triton-X 100, reference compound]”, for which the “Haemolytic activity, percentage of lysis (Average ± SD)” value in data set [2] worked out at 99.824 ± 0.536%.

As for `[H]/N=C(/N)N[C@H]1[C@H](O)[C@@H](O)[C@H](O[C@@H]2O[C@@H](C)[C@](O)(C=O)[C@H]2O[C@@H]2O[C@@H](CO)[C@H](O)[C@@H](O)[C@@H]2NC)[C@@H](N/C(N)=N\[H])[C@@H]1O` [Streptomycin, streptomycin, reference compound], the zone of inhibition at 25 µg/mL with Bacillus subtilis was found to be 34 ± 0.015 mm; in the data set on Salmonella typhi, 33 ± 0.001 mm; in the data set on Staphylococcus aureus it was 15 ± 0.034 mm; in the data set with Escherichia coli, 29.3 ± 0.002 mm; with Shigella dysenteriae, 48 ± 0.05 mm; with Pseudomonas aeruginosa, 41.5 ± 0.002 mm. The zone of inhibition at 50 µg/mL with Bacillus subtilis stood at 53 ± 0.001 mm; in the data set with Salmonella typhi, 53 ± 0.001 mm; in the data set with Staphylococcus aureus, 55 ± 0.03 mm; in the data set with Escherichia coli, 63 ± 0.002 mm; in the data set on Shigella dysenteriae, 55 ± 0.034 mm; with Pseudomonas aeruginosa, 63 ± 0.002 mm. Further, the half-inhibitory concentration (IC50) in the data set with Pseudomonas aeruginosa (read-out: IC50 against Pseudomonas aeruginosa) was found to be 35.2 µg/mL (≈ 60.5 µM).
